A value given as a limit tells only on which side of the number the result lay.

The IC50 is the point on the concentration scale where inhibition reaches its midpoint. A lower IC50 goes with greater potency in that assay.

The target in one test is T1, SGLT-2 (Homo sapiens, UniProt P31639).
T1 sequence (P31639 1-672): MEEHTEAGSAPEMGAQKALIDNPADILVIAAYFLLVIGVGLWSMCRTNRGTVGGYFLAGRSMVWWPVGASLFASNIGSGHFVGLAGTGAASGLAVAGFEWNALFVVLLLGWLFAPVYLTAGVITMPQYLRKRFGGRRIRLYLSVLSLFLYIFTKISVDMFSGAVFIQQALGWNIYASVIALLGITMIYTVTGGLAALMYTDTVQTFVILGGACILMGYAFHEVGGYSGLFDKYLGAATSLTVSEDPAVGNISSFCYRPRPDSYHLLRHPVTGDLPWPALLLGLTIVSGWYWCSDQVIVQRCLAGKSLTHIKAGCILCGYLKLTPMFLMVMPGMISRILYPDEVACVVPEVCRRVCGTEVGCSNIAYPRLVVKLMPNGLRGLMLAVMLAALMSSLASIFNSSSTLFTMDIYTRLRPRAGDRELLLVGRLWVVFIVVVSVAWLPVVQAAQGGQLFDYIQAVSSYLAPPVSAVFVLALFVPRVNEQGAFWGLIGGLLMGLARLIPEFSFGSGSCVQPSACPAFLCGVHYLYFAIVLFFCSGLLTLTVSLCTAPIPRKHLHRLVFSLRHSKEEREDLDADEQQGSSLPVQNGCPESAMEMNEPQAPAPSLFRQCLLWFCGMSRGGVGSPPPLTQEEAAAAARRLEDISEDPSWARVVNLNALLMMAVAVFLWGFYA
The test can be described thus: [14C]-AMG absorption in stable SGLT2 expressing Flp-in CHO cells (SGLT-2 activity screening assay). Format: cell-based. The conditions noted are these: 14C-AMG uptake, 37° C. 1 h, 1% DMSO. An excerpt:
(§1) Example 1: [^14C]-AMG Absorption in Stable SGLT1 and SGLT2 Expressing Flp-in CHO Cells (SGLT-1 and SGLT-2 Activity Screening Assay)
(§2) SGLT-1 and SGLT-2 cDNA clones were purchased from OriGene. After sequencing verification, the expression vectors were constructed based on pcDNA5/FRT using conventional molecular biology method. The expression vector was transfected into Flp-in CHO cells using Lipofectamin 2000. The transfected cells were subject hygromycin selection. The single clones of cells were selected by serial dilutions 4-5 weeks after transfection. The expression of SGLT-1 ? SGLT-2 were confirmed by RT-PCR and functional assay and cell line with strong signal was selected for subsequent study.
(§3) Culture of stable SGLT-1 and SGLT-2 expressing Flp-in CHO cell line: the culture media contain F12 medium (Invitrogen), 500 μg/ml hygromycin (Calbiochem) and 10% FBS (Invitrogen). Upon 80% confluency, the cells in the T75 flask were washed three times with PBS (Invitrogen), and 5 mL of Trpsin-EDTA solution (Invitrogen) was then added. The flask was gently rotated so that all the cells were submerged in the digestion solution. After the cells detach, 10 mL of culture medium was added and single cell suspension was prepared by pipetting up and down. The cell concentration was adjusted to 3×10^5/mL, 100 μL/well was added onto clear bottom 96-well plate (Corning).
(§4) The cells were ready for absorption assay once they attached after overnight culture. 12 h after cell plating, the cells were washed once with 150 μL/well absorption solution KRH-NMG (120 mM NMG, 4.7 mM KCl, 1.2 mM MgCl2, 2.2 mM CaCl2, 10 mM HEPES, pH 7.4 1 mM Tris). The solution was then removed from the well. 2.5 μCi/mL ^14C labeled AMG (PerkinElmer) Buffer KRH-Na+ (120 mM NaCl, 4.7 mM KCl, 1.2 mM MgCl2, 2.2 mM CaCl2, 10 mM HEPES, pH 7.4 1 mM Tris) was added at […] after washing with Buffer KRH-Na+ and KRH-NMG. The corresponding compound I was immediately added at 5 μL/well, ensuring the concentration of Dimethyl Sulfoxide was 1% (v/v). The plate was subsequently incubated at 37° C. for 1 h, after which 150 μL of ice cold wash buffer (120 mM NaCl, 4.7 mM KCl, 1.2 mM MgCl2, 2.2 mM CaCl2, 10 mM HEPES, 0.5 mM phlorizin, pH 7.4 1 mM Tris) was immediately added to terminate the reaction. Each well was washed three times with wash buffer and finally the solution was removed. Caution was taken to avoid cell detachment during the procedure. 20 μL/well of Lysis Buffer (0.1 mM NaOH) was added, the plate was vortexed at 900 rpm for 5 min. 80 μL/well of scintillation solution Microsint40 was added, and vortexed at 900 rpm for 5 min. The radioactivity was assayed using MicroBeta Trilux (PerkinElmer). The data was analyzed and IC50 of the compounds was calculated using XL-fit software.

The next test has as its target T2, SGLT-1 (Homo sapiens, UniProt P13866).
T2 sequence (P13866 1-664): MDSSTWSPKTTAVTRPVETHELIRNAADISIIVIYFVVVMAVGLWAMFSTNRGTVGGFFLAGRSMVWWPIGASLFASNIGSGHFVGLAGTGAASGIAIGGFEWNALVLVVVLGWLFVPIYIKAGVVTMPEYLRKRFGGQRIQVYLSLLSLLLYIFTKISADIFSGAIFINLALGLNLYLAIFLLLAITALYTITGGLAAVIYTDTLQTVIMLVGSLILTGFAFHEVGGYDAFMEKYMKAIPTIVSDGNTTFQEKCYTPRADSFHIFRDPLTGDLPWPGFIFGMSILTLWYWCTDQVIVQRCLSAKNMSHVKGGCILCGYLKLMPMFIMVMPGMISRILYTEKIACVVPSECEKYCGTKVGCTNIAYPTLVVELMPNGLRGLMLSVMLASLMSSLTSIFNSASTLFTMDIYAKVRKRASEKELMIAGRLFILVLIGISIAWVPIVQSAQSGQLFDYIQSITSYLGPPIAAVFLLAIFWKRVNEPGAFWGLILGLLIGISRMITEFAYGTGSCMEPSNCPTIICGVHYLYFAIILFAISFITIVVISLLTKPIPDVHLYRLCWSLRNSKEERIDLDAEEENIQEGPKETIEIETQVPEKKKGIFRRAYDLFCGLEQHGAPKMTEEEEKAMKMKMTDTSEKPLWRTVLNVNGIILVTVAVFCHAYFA
The test can be described thus: [14C]-AMG absorption in stable SGLT1 expressing Flp-in CHO cells (SGLT-1 activity screening assay). Format: cell-based. As to conditions: 14C-AMG uptake, 37° C. 1 h, 1% DMSO.
Text: as §1, §2, §3, §4

As for `OC[C@H]1O[C@@H](c2ccc(Cl)c(Cc3ccc(OC[C@@H]4Cc5ccccc5O4)cc3)c2)[C@H](O)[C@@H](O)[C@@H]1O` [Compound I-23, (2S,3R,4R,5S,6R)-2-(4-chloro-3-(4-(((S)-2,3-dihydrobenzofuran-2-yl)methoxy)benzyl)phenyl)-6-(hydroxymethyl)tetrahydro-2H-pyran-3,4,5-triol], the IC50 is 0.003 µM against SGLT-2 and 0.301 µM against SGLT-1.

For the molecule `COc1ccc([C@@H]2O[C@H](CO)[C@@H](O)[C@H](O)[C@H]2O)cc1Cc1ccc(OCC2Cc3ccccc3O2)cc1` (stereo partly drawn) [Compound I-29, (2S,3R,4R,5S,6R)-2-(3-(4-((2,3-dihydrobenzofuran-2-yl)methoxy)benzyl)-4-methoxyphenyl)-6-(hydroxymethyl)tetrahydro-2H-pyran-3,4,5-triol], the IC50 was 0.059 µM at SGLT-2 and 0.22 µM against SGLT-1.

In the case of `OC[C@H]1O[C@@H](c2ccc(Cl)c(Cc3ccc(OCC4Cc5cccc(F)c5O4)cc3)c2)[C@H](O)[C@@H](O)[C@@H]1O` (stereo partly drawn) [Compound I-34, (2S,3R,4R,5S,6R)-2-(4-chloro-3-(4-((7-fluoro-2,3-dihydrobenzofuran-2-yl)methoxy)benzyl)phenyl)-6-(hydroxymethyl)tetrahydro-2H-pyran-3,4,5-triol], the IC50 against SGLT-2 turned out to be 0.0045 µM; against SGLT-1 it was 0.141 µM.

`Cc1ccc([C@@H]2O[C@H](CO)[C@@H](O)[C@H](O)[C@H]2O)cc1Cc1ccc(OCC2(C)OCc3ccccc32)cc1` (stereo partly drawn) [Compound I-112, (2S,3R,4R,5S,6R)-2-(3-(4-((1-methyl-1,3-dihydroisobenzofuran-1-yl)methoxy)benzyl)-4-methylphenyl)-6-(hydroxymethyl)tetrahydro-2H-pyran-3,4,5-triol]: the IC50 came out at 0.008 µM at SGLT-2 and 0.179 µM against SGLT-1.

Regarding `Cc1ccc([C@@H]2O[C@H](CO)[C@@H](O)[C@H](O)[C@H]2O)cc1Cc1ccc(OC[C@@H]2Cc3ccccc3O2)cc1` [Compound I-26, (2S,3R,4R,5S,6R)-2-(3-(4-(((S)-2,3-dihydrobenzofuran-2-yl)methoxy)benzyl)-4-methylphenyl)-6-(hydroxymethyl)tetrahydro-2H-pyran-3,4,5-triol], the IC50 is 0.0027 µM on SGLT-2 and 0.095 µM at SGLT-1.

With `CC1(COc2ccc(Cc3cc([C@@H]4O[C@H](CO)[C@@H](O)[C@H](O)[C@H]4O)ccc3Cl)cc2)OCc2ccccc21` (single isomer, unassigned) [Compound I-115], the IC50 against SGLT-2 was determined as 0.0127 µM; against SGLT-1, 0.725 µM.

As for `OC[C@H]1O[C@@H](c2ccc(Cl)c(Cc3ccc(OCc4cc5ccccc5o4)c(F)c3)c2)[C@H](O)[C@@H](O)[C@@H]1O` [Compound I-11, (2S,3R,4R,5S,6R)-2-(3-(4-(benzofuran-2-ylmethoxy)-3-fluorobenzyl)-4-chlorophenyl)-6-(hydroxymethyl)tetrahydro-2H-pyran-3,4,5-triol], the IC50 against SGLT-2 was determined as 0.023 µM; against SGLT-1 it was 2.54 µM.

With `Cc1ccc([C@@H]2O[C@H](CO)[C@@H](O)[C@H](O)[C@H]2O)cc1Cc1ccc(OCC2(C)Cc3ccccc3O2)cc1` (single isomer, unassigned) [Compound I-110], the IC50 at SGLT-2 was determined as 0.0129 µM; on SGLT-1, 0.244 µM.

Turning to `CC1(COc2ccc(Cc3cc([C@@H]4O[C@H](CO)[C@@H](O)[C@H](O)[C@H]4O)ccc3Cl)cc2)Cc2ccccc2O1` (single isomer, unassigned) [Compound I-107], the figures for the IC50 against SGLT-2 and on SGLT-1 were > 2 µM and 31.4 µM, respectively.

`OC[C@H]1O[C@@H](c2ccc(Cl)c(Cc3ccc(OC[C@H]4Cc5ccccc5O4)cc3)c2)[C@H](O)[C@@H](O)[C@@H]1O` [Compound I-24, (2S,3R,4R,5S,6R)-2-(4-chloro-3-(4-(((R)-2,3-dihydrobenzofuran-2-yl)methoxy)benzyl)phenyl)-6-(hydroxymethyl)tetrahydro-2H-pyran-3,4,5-triol]: the IC50 against SGLT-2 was 0.0043 µM; against SGLT-1, 1.19 µM.

Take `OC[C@H]1O[C@@H](c2ccc(Cl)c(Cc3ccc(OCc4cc5c(F)cccc5o4)cc3)c2)[C@H](O)[C@@H](O)[C@@H]1O` [Compound I-7, (2S,3R,4R,5S,6R)-2-(4-chloro-3-(4-((4-fluorobenzofuran-2-yl)methoxy)benzyl)phenyl)-6-(hydroxymethyl)tetrahydro-2H-pyran-3,4,5-triol]: the IC50 was 0.014 µM against SGLT-2 and 0.444 µM against SGLT-1.

With `N#Cc1ccc([C@@H]2O[C@H](CO)[C@@H](O)[C@H](O)[C@H]2O)cc1Cc1ccc(OCC2Cc3ccccc3O2)cc1` (stereo partly drawn) [Compound I-28, 2-(4-((2,3-dihydrobenzofuran-2-yl)methoxy)benzyl)-4-((2S,3R,4R,5S,6R)-3,4,5-trihydroxy-6-(hydroxymethyl)tetrahydro-2H-pyran-2-yl)benzonitrile], the IC50 at SGLT-2 is > 2 µM; at SGLT-1 it was 41.4 µM.

With `CC1(COc2ccc(Cc3cc([C@@H]4O[C@H](CO)[C@@H](O)[C@H](O)[C@H]4O)ccc3Cl)cc2)OCc2ccccc21` (single isomer, unassigned) [Compound I-116], the IC50 against SGLT-2 stood at 0.0039 µM; on SGLT-1 it was 1.31 µM.

Turning to `OC[C@H]1O[C@@H](c2ccc(Cl)c(Cc3ccc(OCC4Cc5c(F)cccc5O4)cc3)c2)[C@H](O)[C@@H](O)[C@@H]1O` (stereo partly drawn) [Compound I-31, (2S,3R,4R,5S,6R)-2-(4-chloro-3-(4-((4-fluoro-2,3-dihydrobenzofuran-2-yl)methoxy)benzyl)phenyl)-6-(hydroxymethyl)tetrahydro-2H-pyran-3,4,5-triol], the IC50 against SGLT-2 was 0.0065 µM; against SGLT-1 it was 0.365 µM.

Turning to `Cc1ccc([C@@H]2O[C@H](CO)[C@@H](O)[C@H](O)[C@H]2O)cc1Cc1ccc(OCC2(C)OCc3ccccc32)cc1` (single isomer, unassigned) [Compound I-113], the figures for the IC50 against SGLT-2 and on SGLT-1 were 0.0186 µM and 0.655 µM, respectively.

In the case of `CC1(COc2ccc(Cc3cc([C@@H]4O[C@H](CO)[C@@H](O)[C@H](O)[C@H]4O)ccc3Cl)cc2)Cc2ccccc2O1` (single isomer, unassigned) [Compound I-106], the IC50 is 0.0182 µM on SGLT-2 and 0.7 µM against SGLT-1.

The values are drawn from US9914724B2, “C-aryl glycosid derivatives, pharmaceutical composition, preparation process and uses thereof” (SHANGHAI DE NOVO PHARMATECH CO. LTD., priority 2014, dated 2018).
